Patent US20260014119A1, “EMOPAMIL-BINDING PROTEIN INHIBITORS AND USES THEREOF” (BIOGEN MA INC., priority 2022, published 2026)

Biological target: T1, EBP (Homo sapiens, UniProt Q15125)
T1 construct: HEK293T cells were utilized as the source of EBP enzyme; endogenous in cells; host or cells: HEK293T
Test: EBP Functional Assay (EBP immunoaffinity LC-MS assay)
Type: biochemical
Conditions: EBP enzyme from HEK293T cells; 30 min with inhibitor, then zymosterol-d5 at 37° C. for 4 h; percent conversion by LC-APCI MRM MS
Procedure: The EBP immunoaffinity (IA) LC-MS assay measures the potency of small molecule inhibitors of EBP by quantifying their concentration-dependent changes in the enzyme's substrate and product using liquid chromatography atmospheric pressure chemical ionization multiple reaction monitoring mass spectrometry (LC-APCI MRM MS). HEK293T cells were utilized as the source of EBP enzyme. The enzyme was incubated with the small molecule inhibitors at variable concentrations for 30 min. Deuterated form of EBP substrate, zymosterol-d5 (Avanti Polar Lipids, Cat #700068P-1 mg), was then added and the plate was incubated at 37° C. for 4 h. Finally, the sterol isomers were extracted and injected to LC-APCI MRM MS. MRM transition used for the quantification for both zymosterol and […] (substrate and product of EBP enzymatic reaction, respectively) is 372.3-203.2, CE 30 and DP 80 in positive ion mode. Percent conversion of the zymosterol-d5 to dehydrolathosterol-d5 was used to derive IC50 curves. Tasin-1 (1′-[(4-Methoxyphenyl)sulfonyl]-4-methyl-1,4′-bipiperidine, CAS 792927-06-1) was used as the reference small molecule inhibitor.
Percent conversion versus the compound concentration data were fit to the following 4-parameter logistic model to generate IC50 curves: […]

T1 sequence (Q15125 whole entry): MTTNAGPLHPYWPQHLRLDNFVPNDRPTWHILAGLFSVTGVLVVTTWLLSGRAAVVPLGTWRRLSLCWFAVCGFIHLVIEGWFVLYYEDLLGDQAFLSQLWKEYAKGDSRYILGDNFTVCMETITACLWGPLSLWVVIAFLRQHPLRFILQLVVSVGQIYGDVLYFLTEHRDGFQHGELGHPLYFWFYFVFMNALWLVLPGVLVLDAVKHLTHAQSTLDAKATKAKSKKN

SMILES | IC50
Cc1cc(C)c(S(=O)(=O)N2C[C@H]3C[C@H](NCC4CCOCC4)C[C@H]3C2)cn1 [Example 10, (3aR,5s,6aS)-2-((4,6-Dimethylpyridin-3-yl)sulfonyl)-N-((tetrahydro-2H-pyran-4-yl)methyl)octahydrocyclopenta[c]pyrrol-5-amine] | > 0.5 µM
Cc1nc(C(F)(F)F)ccc1S(=O)(=O)N1C[C@H]2C[C@H](NC3CC4(COC4)C3)C[C@H]2C1 [Example 30, (3aR,5s,6aS)-2-((2-Methyl-6-(trifluoromethyl)pyridin-3-yl)sulfonyl)-N-(2-oxaspiro[3.3]heptan-6-yl)octahydrocyclopenta[c]pyrrol-5-amine] | 0.1 to 0.5 µM
Cc1cc(S(=O)(=O)N2C[C@H]3CN(C4CCOCC4)C[C@H]3C2)n(C)n1 [Example 49, Rac-(3aR,6aS)-2-((1,3-dimethyl-1H-pyrazol-5-yl)sulfonyl)-5-(tetrahydro-2H-pyran-4-yl)octahydropyrrolo[3,4-c]pyrrole] | > 0.5 µM
Cc1nc(C(F)(F)F)ncc1S(=O)(=O)N1C[C@H]2CN(CC3CCOCC3)C[C@@H]2C1 (racemic) [Example 59, Rac-(3aR,6aR)-2-((4-methyl-2-(trifluoromethyl)pyrimidin-5-yl)sulfonyl)-5-((tetrahydro-2H-pyran-4-yl)methyl)octahydropyrrolo[3,4-c]pyrrole] | 0.1 to 0.5 µM
Cn1nc(C2CC2)cc1S(=O)(=O)N1C[C@H]2C[C@H](NCC3CCOCC3)C[C@H]2C1 [Example 12, (3aR,5s,6aS)-2-((3-Cyclopropyl-1-methyl-1H-pyrazol-5-yl)sulfonyl)-N-((tetrahydro-2H-pyran-4-yl)methyl)octahydrocyclopenta[c]pyrrol-5-amine] | 0.1 to 0.5 µM
O=S(=O)(c1cc(F)cc(F)c1)N1C[C@H]2CN(C3CCOCC3)C[C@H]2C1 [Example 39, (3aR,6aS)-2-((3,5-Difluorophenyl)sulfonyl)-5-(tetrahydro-2H-pyran-4-yl)octahydropyrrolo[3,4-c]pyrrole] | 0.1 to 0.5 µM
O=S(=O)(c1ccc(OC(F)F)cc1)N1C[C@H]2C[C@H](NC3COC3)C[C@H]2C1 [Example 14, (3aR,5s,6aS)-2-((4-(Difluoromethoxy)phenyl)sulfonyl)-N-(oxetan-3-yl)octahydrocyclopenta[c]pyrrol-5-amine] | > 0.5 µM
Cc1nc(C(F)(F)F)ccc1S(=O)(=O)N1C[C@H]2CN(C3CCOCC3)C[C@@H]2C1 [Example 45, (3aR,6aR)-2-((2-Methyl-6-(trifluoromethyl)pyridin-3-yl)sulfonyl)-5-(tetrahydro-2H-pyran-4-yl)octahydropyrrolo[3,4-c]pyrrole] | 0.1 to 0.5 µM
Cc1nc(C(F)(F)F)ccc1S(=O)(=O)N1C[C@H]2CN(CC34COC(C)(C3)C4)C[C@@H]2C1 (single isomer, unassigned) [Example 56] | 0.1 to 0.5 µM
Cc1nc(C(F)(F)F)ccc1S(=O)(=O)N1C[C@H]2CN(C3CCOCC3)C[C@@H]2C1 (single isomer, unassigned) [Example 48] | 0.1 to 0.5 µM
O=S(=O)(c1ccc(OC(F)F)cc1)N1C[C@H]2C[C@@H](NCC3CCOCC3)C[C@H]2C1 [Example 2, (3aR,5r,6aS)-2-((4-(Difluoromethoxy)phenyl)sulfonyl)-N-((tetrahydro-2H-pyran-4-yl)methyl)octahydrocyclopenta[c]pyrrol-5-amine] | 0.1 to 0.5 µM
O=S(=O)(c1ccc(OC(F)F)cc1)N1C[C@H]2C[C@H](N3CCOCC3)C[C@H]2C1 [Example 13, 4-((3aR,5r,6aS)-2-((4-(Difluoromethoxy)phenyl)sulfonyl)octahydrocyclopenta[c]pyrrol-5-yl)morpholine] | > 0.5 µM
Cc1nc(C(F)(F)F)ncc1S(=O)(=O)N1C[C@H]2CN(C3CC4(COC4)C3)C[C@@H]2C1 (racemic) [Example 58, Rac-(3aR,6aR)-2-((4-methyl-2-(trifluoromethyl)pyrimidin-5-yl)sulfonyl)-5-(2-oxaspiro[3.3]heptan-6-yl)octahydropyrrolo[3,4-c]pyrrole] | 0.1 to 0.5 µM

Second part, the compound after the results:

IC50 | SMILES
0.1 to 0.5 µM | Cc1nc(C(F)(F)F)ccc1S(=O)(=O)N1C[C@@H]2CN(CC34COC(C)(C3)C4)C[C@H]2C1 (single isomer, unassigned) [Example 55]
0.1 to 0.5 µM | CC1CCN([C@@H]2C[C@@H]3CN(S(=O)(=O)c4ccc(OC(F)F)cc4)C[C@@H]3C2)CC1 [Example 6, (3aR,5r,6aS)-2-((4-(Difluoromethoxy)phenyl)sulfonyl)-5-(4-methylpiperidin-1-yl)octahydrocyclopenta[c]pyrrole]
< 0.1 µM | Cc1cc(C)c(S(=O)(=O)N2CC3CN(C4CCOCC4)CC3C2)c(C)c1 (centres unmarked) [Example 32, 2-(Mesitylsulfonyl)-5-(tetrahydro-2H-pyran-4-yl)octahydropyrrolo[3,4-c]pyrrole]
0.1 to 0.5 µM | CC1CCN([C@H]2C[C@@H]3CN(S(=O)(=O)c4ccc(OC(F)F)cc4)C[C@@H]3C2)CC1 [Example 4, (3aR,5s,6aS)-2-((4-(Difluoromethoxy)phenyl)sulfonyl)-5-(4-methylpiperidin-1-yl)octahydrocyclopenta[c]pyrrole]
< 0.1 µM | COc1ccc(S(=O)(=O)N2C[C@H]3CN(C4CCOCC4)C[C@H]3C2)c(C)n1 [Example 34, (3aR,6aS)-2-((6-Methoxy-2-methylpyridin-3-yl)sulfonyl)-5-(tetrahydro-2H-pyran-4-yl)octahydropyrrolo[3,4-c]pyrrole]
0.1 to 0.5 µM | Cc1cc(S(=O)(=O)N2C[C@H]3CN(C4CCOCC4)C[C@H]3C2)n(C)n1 [Example 31, (3aR,6aS)-2-((1,3-dimethyl-1H-pyrazol-5-yl)sulfonyl)-5-(tetrahydro-2H-pyran-4-yl)octahydropyrrolo[3,4-c]pyrrole]
< 0.1 µM | Cc1ccc(S(=O)(=O)N2C[C@H]3C[C@H](NCC4CCOCC4)C[C@H]3C2)c(C)c1 [Example 7, (3aR,5s,6aS)-2-((2,4-Dimethylphenyl)sulfonyl)-N-((tetrahydro-2H-pyran-4-yl)methyl)octahydrocyclopenta[c]pyrrol-5-amine]
< 0.1 µM | Cc1ccc(S(=O)(=O)N2C[C@H]3C[C@@H](NCC4CCOCC4)C[C@H]3C2)c(C)c1 [Example 1, (3aR,5r,6aS)-2-((2,4-Dimethylphenyl)sulfonyl)-N-((tetrahydro-2H-pyran-4-yl)methyl)octahydrocyclopenta[c]pyrrol-5-amine]
< 0.1 µM | Cc1nc(C(F)(F)F)ccc1S(=O)(=O)N1C[C@H]2C[C@H](NCC3CCOCC3)C[C@H]2C1 [Example 27, (3aR,5s,6aS)-2-((2-Methyl-6-(trifluoromethyl)pyridin-3-yl)sulfonyl)-N-((tetrahydro-2H-pyran-4-yl)methyl)octahydrocyclopenta[c]pyrrol-5-amine]
< 0.1 µM | Cc1nc(C(F)(F)F)ccc1S(=O)(=O)N1C[C@H]2CN(C3CC4(COC4)C3)C[C@@H]2C1 (racemic) [Example 50, Rac-(3aR,6aR)-2-((2-methyl-6-(trifluoromethyl)pyridin-3-yl)sulfonyl)-5-(2-oxaspiro[3.3]heptan-6-yl)octahydropyrrolo[3,4-c]pyrrole]
< 0.1 µM | O=S(=O)(c1ccc(OC(F)F)cc1)N1C[C@H]2C[C@H](NC3CCOCC3)C[C@H]2C1 [Example 16, (3aR,5s,6aS)-2-((4-(Difluoromethoxy)phenyl)sulfonyl)-N-(tetrahydro-2H-pyran-4-yl)octahydrocyclopenta[c]pyrrol-5-amine]
< 0.1 µM | Cc1ccc(S(=O)(=O)N2C[C@H]3C[C@@H](N4CCC(C)CC4)C[C@H]3C2)c(C)c1 [Example 5, (3aR,5r,6aS)-2-((2,4-Dimethylphenyl)sulfonyl)-5-(4-methylpiperidin-1-yl)octahydrocyclopenta[c]pyrrole]
< 0.1 µM | Cc1nc(C(F)(F)F)nc(C)c1S(=O)(=O)N1C[C@H]2CN(C3CC4(COC4)C3)C[C@@H]2C1 [Example 61, (3aR,6aR)-2-((4,6-dimethyl-2-(trifluoromethyl)pyrimidin-5-yl)sulfonyl)-5-(2-oxaspiro[3.3]heptan-6-yl)octahydropyrrolo[3,4-c]pyrrole]
< 0.1 µM | Cc1nc(C(F)(F)F)nc(C)c1S(=O)(=O)N1C[C@H]2CN(CC3CCOCC3)C[C@@H]2C1 [Example 62, (3aR,6aR)-2-((4,6-dimethyl-2-(trifluoromethyl)pyrimidin-5-yl)sulfonyl)-5-((tetrahydro-2H-pyran-4-yl)methyl)octahydropyrrolo[3,4-c]pyrrole]
< 0.1 µM | Cc1nc(C(F)(F)F)ccc1S(=O)(=O)N1C[C@H]2CN(CC3CCOCC3)C[C@@H]2C1 (racemic) [Example 51, Rac-(3aR,6aR)-2-((2-methyl-6-(trifluoromethyl)pyridin-3-yl)sulfonyl)-5-((tetrahydro-2H-pyran-4-yl)methyl)octahydropyrrolo[3,4-c]pyrrole]
< 0.1 µM | Cc1nc(C(F)(F)F)ccc1S(=O)(=O)N1C[C@H]2C[C@H](N(C)CC3CCOCC3)C[C@H]2C1 [Example 23, (3aR,5s,6aS)-N-Methyl-2-((2-methyl-6-(trifluoromethyl)pyridin-3-yl)sulfonyl)-N-((tetrahydro-2H-pyran-4-yl)methyl)octahydrocyclopenta[c]pyrrol-5-amine]
